How the values were obtained:
[1] = biological target: T1, Recombinant p62 protein (Homo sapiens, UniProt Q13501); experiment: Surface plasmon resonance (SPR) compound binding to immobilised p62; details: recombinant p62, 15° C
T1 construct: Recombinant p62 protein was buffer exchanged into Biacore SPR running buffer
Description: Example 28: Surface Plasmon Resonance (SPR) Analysis
Recombinant p62 protein was buffer exchanged into Biacore SPR running buffer (Cytiva 100671) using the Slide-A-Lyzer Mini Dialysis system 7K MWCO (Thermo Fisher Scientific, Cat no. 69560). The final protein concentration was determined using the Nanodrop One spectrophotometer (Thermo Fisher Scientific, cat no. ND-ONE-W), with calibration for the dialysis buffer.
The prepared protein was diluted in sodium acetate buffer (NaAc, pH 5.5, Cytiva) to concentrations ranging from approximately 0.25-40 μg/mL. Post-immobilization, the protein required approximately 16 hours of equilibration in running buffer supplemented with 1% DMSO at 15° C. to ensure adequate surface equilibration and protein reorganization.
All SPR experiments were conducted at a constant temperature of 15° C. The SPR chip surface was activated using EDC/NHS for a contact time of 6-10 min at a flow rate of 10 μL/min. This was followed by protein immobilization for 2100 seconds and ethanolamine capping for 420 seconds, both at the same flow rate. Immediately after immobilization, the NH2—REEE peptide was analyzed in Single Cycle Kinetics mode (SCK) to verify surface activity, ensuring it binds the sample with the published affinity (−20 μM by SPR).
For general compound binding studies, experiments were performed at 15° C. using a running buffer composed of 10 mM HEPES, 150 mM NaCl, 1 mM DTT, 0.05% Tween 20, and 1% DMSO at pH 7.4. The test compound was initially prepared at a 20 mM concentration in DMSO and subsequently titrated in 2-fold dilutions. For each assay, 2 μL of the compound was mixed with 198 μL of the running buffer, and the mixture was thoroughly pipetted approximately 15 times for homogenization.
A series of blank injections (0 μM concentration) were included for double referencing, with at least 8 or 16 per plate depending on the format. Typical injection parameters were 120 seconds for association and 180 seconds for dissociation at a flow rate of […]. A four-point solvent correction was prepared with DMSO concentrations ranging from 2% to 0.5% in the buffer. Post each compound injection, the system's needles were washed with 50% DMSO.
Analysis of the SPR data was conducted using the Cytiva Evaluation software. The binding levels at the late time-point of each interaction were corrected for reference, then normalized to percentage bound values to account for variations in immobilization levels, protein molecular weight, and compound molecular weight.
Compound binding studies were carried out according to experimental procedures above and SPR % occupancy was determined and summarized in Table 7.

[2] = system: p62 oligomers in HeLa cells; experiment: p62 oligomerization assay (Western blot, 24 h treatment); assay type: cell-based; details: fold change of p62 oligomer levels relative to DMSO control
Description: (§1) HeLa cells were seeded in 6-well plates (700,000 cells) and allowed to adhere overnight. Media was replaced one hour before administering either vehicle (DMSO) or test compounds. After 24 hours of treatment, the media was discarded, and cells were rinsed once with ice-cold 1×PBS before detached from plates with ice-cold RIPA Lysis and Extraction Buffer (Thermo Fisher Scientific) which was supplemented with protease and phosphatase inhibitors. The resulting cell suspensions were transferred to pre-chilled microcentrifuge tubes, incubated on ice for 20 min with intermittent mixing and then centrifuged at 12,000 rpm for 20 min at 4° C. The supernatants were then aspirated slowly and transferred into new tubes kept on ice. The protein concentration in the samples was determined using BCA kit (Thermo Fisher Scientific) as per manufacturer's instructions.
(§2) For the p62 oligomerization and LC3 lipidation assays, cell lysates were prepared using RIPA buffer supplemented with 2% SDS and benzonase (Sigma). The lysates were then combined with 4× Laemmli protein sample buffer (Bio-Rad), heated at 70° C. for 10 min and subjected to a brief centrifugation of 10-15 seconds.
(§3) For p62 oligomerization and LC3 lipidation assays, lysates containing 30 μg of protein and for BRD4 and FKBP12(F36V) degradation assays, lysates containing 20 μg of protein, were loaded slowly into the wells of 4-20% gradient Tris-glycine gels (Bio-Rad). The gels were run at 100V until completion and transferred onto PVDF membranes. Membranes were blocked using 5% milk in TBS-Tween (0.1%) buffer at room temperature for 1 hour. The membranes were incubated with primary antibody in 5% milk-TBST with shaking, overnight at 4° C. The primary antibodies used were: p62 (Novus Biologicals 2C11, H00008878-MO1), LC3A/B (Cell Signalling Technology D3U4C, 12741S), FKBP12 (Abcam ab24373), BRD4 (Cell Signalling Technology E2A7X, 13440S), GAPDH (Cell Signalling Technology D4C6R, 97166S), and β-Actin (Proteintech 66009-1-Ig). Following primary antibody incubation, membranes were washed thrice with TBST 10 min before and after incubation with secondary-HRP conjugated antibody in 5% milk-TBST for 1 hour at room temperature. The secondary antibodies used were: Anti-Mouse IgG HRP Conjugate (Promega W4021B) and Anti-Rabbit IgG HRP Conjugate (Promega W4011B). For the p62 oligomerization assay, the total protein levels were assessed using Ponceau staining (Thermo Fisher Scientific) of PVDF membrane as per recommendation by manufacturer's guidelines.
(§4) Imaging was acquired using SuperSignal™ West Pico PLUS Chemiluminescent Substrate (Thermo Fisher Scientific) with iBright Invitrogen FL100 imaging system. Band signal intensity, reflective of protein concentrations, were quantified using Invitrogen™ iBright™ Analysis and Image J software.
HeLa cells were treated with compounds for 24 hours to evaluate the effect of these compounds on p62 oligomerisation activity. The resulting changes in levels of p62 oligomers were assessed by Western blotting, as described in experimental procedures. The fold change of p62 oligomer levels induced by compound treatment relative to vehicle control (DMSO) was determined and summarized in Table 8. Specifically, FIGS. 2A-C show Western blot images and their corresponding quantification showing the levels of high molecular weight (100-200 kDa) p62 oligomers by 24 hours compound treatments at listed concentrations, relative to vehicle control (DMSO) in HeLa cells. Protein loading consistencies was assessed by Ponceau staining (not shown).

[3] = system: LC3 protein (LC3-II/LC3-I) in HeLa cells; experiment: LC3 lipidation assay (LC3-II/LC3-I, Western blot, 24 h treatment); assay type: cell-based; details: fold change in LC3-II/LC3-I relative to DMSO control
Description: as §1, §2, §3, §4
HeLa cells were treated with compounds for 24 hours to evaluate the effect of these compounds on LC3-II/LC3-I levels, a measure of autophagy activation. The changes in levels of LC3-I, LC3-II and β-Actin (loading control) were assessed by Western blotting, as described in experimental procedures. The fold increase of LC3-II/LC3-I levels induced by compound treatment relative to vehicle control (DMSO) was determined and summarized in Table 9. Specifically, FIGS. 3A-C show Western blot images and their corresponding quantification showing the lipidation levels of LC3 protein (LC3-II/LC3-I) by 24 hours compound treatments at listed concentrations, relative to vehicle control (DMSO) in HeLa cells.

[4] = biological target: T2, BRD4 in HeLa cells (Homo sapiens, UniProt O60885); experiment: BRD4 degradation assay (Western blot, 24 h treatment); assay type: cell-based; details: doses up to 10 μM
T2 construct: endogenous in cells; host or cells: HeLa
Description: as §1
For the BRD4 degradation assay, cell lysates were prepared with RIPA buffer containing 0.25% SDS. These were mixed with 4× Laemmli protein sample buffer (Bio-Rad) supplemented with beta-mercaptoethaol (355 mM). The lysates were then heated at 95° C. for 5 min, and briefly centrifuged for 10-15 seconds.
For p62 oligomerization and LC3 lipidation assays, lysates containing 30 μg of protein and for BRD4 and FKBP12(F36V) degradation assays, lysates containing 20 μg of protein, were loaded slowly into the wells of 4-20% gradient Tris-glycine gels (Bio-Rad). The gels were run at 100V until completion and transferred onto PVDF membranes. Membranes were blocked using 5% milk in TBS-Tween (0.1%) buffer at room temperature for 1 hour. The membranes were incubated with primary antibody in 5% milk-TBST with shaking, overnight at 4° C. […] For the p62 oligomerization assay, the total protein levels were assessed using Ponceau staining (Thermo Fisher Scientific) of PVDF membrane as per recommendation by manufacturer's guidelines.
as §4
To evaluate levels of protein degradation by compounds 100-103, HeLa cells were treated with the corresponding compounds at doses up to 10 μM for 24 hours. The changes in levels of BRD4 and GAPDH (loading control) were assessed by Western blotting, as described in experimental procedures. Results are summarized in Table 11 below, measured by percentage change in BRD4 levels by compound treatment relative to vehicle (DMSO) control.

T1 sequence (Q13501 whole entry, species assumed): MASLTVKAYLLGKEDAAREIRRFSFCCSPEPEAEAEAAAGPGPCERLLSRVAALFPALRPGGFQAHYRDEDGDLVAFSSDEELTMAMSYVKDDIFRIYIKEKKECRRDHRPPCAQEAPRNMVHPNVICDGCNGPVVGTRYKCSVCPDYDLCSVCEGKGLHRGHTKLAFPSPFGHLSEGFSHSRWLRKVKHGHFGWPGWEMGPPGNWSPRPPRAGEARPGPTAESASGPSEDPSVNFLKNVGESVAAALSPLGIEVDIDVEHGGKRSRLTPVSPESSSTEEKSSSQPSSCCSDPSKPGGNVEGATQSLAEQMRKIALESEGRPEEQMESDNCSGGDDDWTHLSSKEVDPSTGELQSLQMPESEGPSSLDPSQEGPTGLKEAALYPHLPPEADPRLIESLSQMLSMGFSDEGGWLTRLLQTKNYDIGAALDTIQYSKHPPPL

receptor occupancy at 100 µM [1]	Compound	p62 oligomerization [2]	LC3 lipidation [3]	Degradation (change in BRD4 levels relative to DMSO control) [4]
30 to 70%	O=C(Nc1ccccc1)c1cc2ccc(CNCCO)cc2o1 [compound 35]	+ (< 2-fold change relative to DMSO control)	+ (< 2-fold change in LC3-II/LC3-I relative to DMSO control)	–
30 to 70%	OCCNCc1cc(F)c2cc(Cc3ccccc3)oc2c1 [compound 37]	++ (> 2-fold change relative to DMSO control)	++ (> 2-fold change in LC3-II/LC3-I relative to DMSO control)	–
30 to 70%	CNCCOCc1ccc2cc(Cc3ccccc3)oc2c1 [compound 8]	++ (> 2-fold change relative to DMSO control)	+ (< 2-fold change in LC3-II/LC3-I relative to DMSO control)	–
> 70%	OCCNCc1ccc2cc(Cc3cccc(Cl)c3)oc2c1 [compound 15]	++ (> 2-fold change relative to DMSO control)	+ (< 2-fold change in LC3-II/LC3-I relative to DMSO control)	–
30 to 70%	COc1ccc(Cc2cc3ccc(CNCCO)cc3o2)cc1 [compound 17]	+ (< 2-fold change relative to DMSO control)	+ (< 2-fold change in LC3-II/LC3-I relative to DMSO control)	–
30 to 70%	CC(O)CNCc1ccc2cc(Cc3ccccc3)oc2c1 (stereo not shown) [compound 5]	+ (< 2-fold change relative to DMSO control)	+ (< 2-fold change in LC3-II/LC3-I relative to DMSO control)	–
30 to 70%	OC1CC(NCc2ccc3cc(Cc4ccccc4)oc3c2)C1 (stereo not shown) [compound 10]	++ (> 2-fold change relative to DMSO control)	+ (< 2-fold change in LC3-II/LC3-I relative to DMSO control)	–

The next lines start with the molecule.

Compound	receptor occupancy at 100 µM [1]	p62 oligomerization [2]	LC3 lipidation [3]	Degradation (change in BRD4 levels relative to DMSO control) [4]
OCCNCc1ccc2cc(CNC3CCCC(O)C3)oc2c1 (stereo not shown) [Compound 33, 3-(((6-(((2-hydroxyethyl)amino)methyl)benzofuran-2-yl)methyl)amino)cyclohexan-1-ol]	30 to 70%	+ (< 2-fold change relative to DMSO control)	+ (< 2-fold change in LC3-II/LC3-I relative to DMSO control)	–
Cc1sc2c(c1C)C(c1ccc(Cl)cc1)=N[C@@H](CC(=O)NCCOCCNCc1ccc3cc(Cc4ccccc4)oc3c1)c1nnc(C)n1-2 [compound 102]	–	–	–	+ (< 2-fold change in BRD4 levels relative to DMSO control)
OCCNCc1ccc2c(Cc3ccccc3)coc2c1 [Compound 43, 2-(((3-benzylbenzofuran-6-yl)methyl)amino)ethan-1-ol]	30 to 70%	+ (< 2-fold change relative to DMSO control)	++ (> 2-fold change in LC3-II/LC3-I relative to DMSO control)	–
OCCNCc1ccc2cc(CCc3ccccc3)oc2c1 [compound 3]	30 to 70%	++ (> 2-fold change relative to DMSO control)	++ (> 2-fold change in LC3-II/LC3-I relative to DMSO control)	–
Cc1sc2c(c1C)C(c1ccc(Cl)cc1)=N[C@@H](CC(=O)NCCOCCOCCOCCNCc1ccc3cc(CCc4ccccc4)oc3c1)c1nnc(C)n1-2 [compound 101]	–	–	–	++ (> 2-fold change in BRD4 levels relative to DMSO control)
Cc1sc2c(c1C)C(c1ccc(Cl)cc1)=N[C@@H](CC(=O)NCCOCCOCCNCc1ccc3cc(Cc4ccccc4)oc3c1)c1nnc(C)n1-2 [compound 103]	–	–	–	++ (> 2-fold change in BRD4 levels relative to DMSO control)
Cc1sc2c(c1C)C(c1ccc(Cl)cc1)=N[C@@H](CC(=O)NCCOCCOCCOCCNCc1ccc3cc(Cc4ccccc4)oc3c1)c1nnc(C)n1-2 [compound 100, (S)-N-(1-(2-benzylbenzofuran-6-yl)-5,8,11-trioxa-2-azatridecan-13-yl)-2-(4-(4-chlorophenyl)-2,3,9-trimethyl-6H-thieno[3,2-f][1,2,4]triazolo[4,3-a][1,4]diazepin-6-yl)acetamide]	–	–	–	++ (> 2-fold change in BRD4 levels relative to DMSO control)
CC(C)NCC(O)COc1ccc2cc(Cc3ccccc3)oc2c1 (stereo not shown) [Compound 9, 1-((2-benzylbenzofuran-6-yl)oxy)-3-(isopropylamino)propan-2-ol]	> 70%	+ (< 2-fold change relative to DMSO control)	++ (> 2-fold change in LC3-II/LC3-I relative to DMSO control)	–
CC(C)NCCOCc1ccc2cc(Cc3ccccc3)oc2c1 [Compound 7, N-(2-((2-benzylbenzofuran-6-yl)methoxy)ethyl)propan-2-amine]	30 to 70%	++ (> 2-fold change relative to DMSO control)	++ (> 2-fold change in LC3-II/LC3-I relative to DMSO control)	–
